Data from patent US20210261621A1, “Preparation of Dilipid Polymixins and Use Thereof as Antimicrobial Adjuvants” (priority 2018, published 2021).
In brackets after ≈: the same amount, converted by molar mass. Where two headings read alike, the source gives them in different places. Positions of bridges follow the written chain, without caps; N, C: chain ends. Non-standard residues stand in square brackets, D forms with d. Residues, ends and D or L forms follow the SMILES beside them. *: point of attachment. Lauroyl = CCCCCCCCCCCC(=O)*; Octanoyl = CCCCCCCC(=O)*; Dab = NCC[C@H](N)C(=O)O; Butyryl = CCCC(=O)*

Key:
MSSE CANWARD-2008 81388 = type: cell-based, Staphylococcus epidermidis; conditions: for MIC: MSSE CANWARD-2008 81388 (methicillin-susceptible Staphylococcus epidermidis)
Text: (§1) Bacterial strains were either obtained from the American Type Culture Collection (ATCC), Canadian National Intensive Care Unit (CAN-ICU) surveillance study or the Canadian Ward Surveillance (CANWARD) study. Strains from both CAN-ICU and CANWARD are isolates recovered from patients diagnosed with a presumed infectious disease that were admitted in a participating medical center across Canada. Efflux-deficient strain PAO200 (lacking MexAB-OprM efflux system) and PA0750 (lacking MexAB-OprM, MexCD-OprJ, MexEF-OprN, MexJK and MexXY efflux systems, and the outer membrane protein OpmH) were kindly gifted by Dr. Ayush Kumar (University of Manitoba).
(§2) The in vitro antibacterial activity of the compounds studied were assessed by broth microdilution susceptibility testing following CLSI guidelines. Bacterial cultures were grown overnight prior to the assay. The overnight grown cultures were diluted in saline to 0.5 McFarland turbidity, followed by 1:50 dilution in Mueller-Hinton broth (MHB) for inoculation to a final concentration of approximately 5×10^5 colony forming units/mL. Testing was performed on 96-well plates where the tested compounds were 2-fold serially diluted in MHB and incubated with equal volumes of bacterial inoculum at 37° C. for 18 h. […] Wells containing MHB with or without bacterial cells were used as positive or negative control, respectively.

MRSE CAN-ICU 61589 = type: cell-based, S. epidermidis
Text: as §1, §2

P. aeruginosa ATCC 27853 = type: cell-based, Pseudomonas aeruginosa
Text: as §1, §2

[1] = tested on: P. aeruginosa CAN-ICU 62308; type: cell-based, Pseudomonas aeruginosa
Text: as §1, §2

P. aeruginosa PA095 = type: cell-based, Pseudomonas aeruginosa; conditions: PA095
Text: as §1, §2

P. aeruginosa PA100036 = type: cell-based, Pseudomonas aeruginosa
Text: as §1, §2

P. aeruginosa PA101885 = type: cell-based, Pseudomonas aeruginosa; conditions: PA101885
Text: as §1, §2

[2] = tested on: P. aeruginosa PA259-96918; type: cell-based, Pseudomonas aeruginosa; conditions: PA259-96918
Text: as §1, §2

[3] = tested on: P. aeruginosa PA260-97103; type: cell-based, Pseudomonas aeruginosa; conditions: PA260-97103
Text: as §1, §2

[4] = tested on: P. aeruginosa PA262-101856; type: cell-based, Pseudomonas aeruginosa
Text: as §1, §2

[5] = tested on: P. aeruginosa PA264-104354; type: cell-based, Pseudomonas aeruginosa; conditions: PA264-104354
Text: as §1, §2

P. aeruginosa PAO1 = type: cell-based, Pseudomonas aeruginosa
Text: as §1, §2

[6] = tested on: S. maltophilia CAN-ICU 62584; type: cell-based, Stenotrophomonas maltophilia
Text: as §1, §2

A. baumannii 110193 = type: cell-based, Acinetobacter baumannii
Text: as §1, §2

A. baumannii AB027 = type: cell-based, Acinetobacter baumannii
Text: as §1, §2

A. baumannii AB031 = type: cell-based, Acinetobacter baumannii
Text: as §1, §2

A. baumannii ATCC 17978 = type: cell-based, Acinetobacter baumannii
Text: as §1, §2

[7] = tested on: A. baumannii CAN-ICU 63169; type: cell-based, Acinetobacter baumannii
Text: as §1, §2

A. baumannii LAC-4 = type: cell-based, Acinetobacter baumannii
Text: as §1, §2

K. pneumoniae 116381 = type: cell-based, Klebsiella pneumoniae
Text: as §1, §2

K. pneumoniae ATCC 13883 = type: cell-based, Klebsiella pneumoniae
Text: as §1, §2

P. aeruginosa 101243 = type: cell-based, Pseudomonas aeruginosa; conditions: 101243
Experimental: (§3) We then addressed the possibility for the dilipid polymyxins to display enhanced antibacterial activity against colistin-resistant Gram-negative pathogens. […] The extended hydrophobic region of the dilipid polymyxin may provide additional hydrophobic interactions to the outer membrane of colistin-resistant organisms. Eight MDR colistin-resistant Gram-negative bacterial isolates were tested, including two E. coli isolates harboring the mcr-1 plasmid-encoded polymyxin resistance gene. We found no difference between the antibacterial activity of dilipid polymyxins and colistin against colistin-resistant Gram-negative bacteria (Table 3).
as §1, §2

P. aeruginosa 114228 = type: cell-based, Pseudomonas aeruginosa; conditions: 114228
Experimental: as §3, §1, §2

P. aeruginosa 91433 = type: cell-based, Pseudomonas aeruginosa; conditions: 91433
Experimental: as §3, §1, §2

K. pneumoniae 113250 = type: cell-based, Klebsiella pneumoniae; conditions: 113250
Experimental: as §3, §1, §2

K. pneumoniae 113254 = type: cell-based, Klebsiella pneumoniae; conditions: 113254
Experimental: as §3, §1, §2

Structure (SMILES): CCCC(=O)NCC[C@H](NC(=O)CCC)C(=O)N[C@H](C(=O)N[C@@H](CCN)C(=O)N[C@H]1CCNC(=O)[C@H]([C@@H](C)O)NC(=O)[C@H](CCN)NC(=O)[C@H](CCN)NC(=O)[C@H](CC(C)C)NC(=O)[C@@H](Cc2ccccc2)NC(=O)[C@H](CCN)NC1=O)[C@@H](C)O [Compound 1, Dibutyric Acid (Di-C4) Polymyxin] (Butyryl-[Dab](Butyryl)T[Dab][Dab][Dab][dF]L[Dab][Dab]T; lactam 4-C)
- MIC (MSSE CANWARD-2008 81388): >128 µg/mL
- MIC (MRSE CAN-ICU 61589; MRSE CAN-ICU 61589 (methicillin-resistant S. epidermidis)): >128 µg/mL
- MIC (P. aeruginosa ATCC 27853; P. aeruginosa ATCC 27853): >128 µg/mL
- MIC ([1]; P. aeruginosa CAN-ICU 62308): >128 µg/mL
- MIC (P. aeruginosa PA095): 64 µg/mL (≈ 53.2 µM)
- MIC (P. aeruginosa PA100036; P. aeruginosa PA100036): >128 µg/mL
- MIC (P. aeruginosa PA101885): 128 µg/mL (≈ 106 µM)
- MIC [2]: 64 µg/mL (≈ 53.2 µM)
- MIC [3]: 2 µg/mL (≈ 1.66 µM)
- MIC ([4]; P. aeruginosa PA262-101856): >128 µg/mL
- MIC [5]: 128 µg/mL (≈ 106 µM)
- MIC (P. aeruginosa PAO1; P. aeruginosa PAO1 (wild type)): 128 µg/mL (≈ 106 µM)
- MIC ([6]; S. maltophilia CAN-ICU 62584): >128 µg/mL
- MIC (A. baumannii 110193; A. baumannii 110193): >128 µg/mL
- MIC (A. baumannii AB027; A. baumannii AB027): >128 µg/mL
- MIC (A. baumannii AB031; A. baumannii AB031): >128 µg/mL
- MIC (A. baumannii ATCC 17978; A. baumannii ATCC 17978): >128 µg/mL
- MIC ([7]; A. baumannii CAN-ICU 63169): >128 µg/mL
- MIC (A. baumannii LAC-4; LAC-4): 128 µg/mL (≈ 106 µM)
- MIC (K. pneumoniae 116381; K. pneumoniae 116381): >128 µg/mL
- MIC (K. pneumoniae ATCC 13883; K. pneumoniae ATCC 13883): >128 µg/mL
- MIC (P. aeruginosa 101243): >128 µg/mL
- MIC (P. aeruginosa 114228): >128 µg/mL
- MIC (P. aeruginosa 91433): >128 µg/mL
- MIC (K. pneumoniae 113250): >64 µg/mL
- MIC (K. pneumoniae 113254): >64 µg/mL

Structure (SMILES): CCCCCCCC(=O)NCC[C@H](NC(=O)CCCCCCC)C(=O)N[C@H](C(=O)N[C@@H](CCN)C(=O)N[C@H]1CCNC(=O)[C@H]([C@@H](C)O)NC(=O)[C@H](CCN)NC(=O)[C@H](CCN)NC(=O)[C@H](CC(C)C)NC(=O)[C@@H](Cc2ccccc2)NC(=O)[C@H](CCN)NC1=O)[C@@H](C)O [Compound 2, Dioctanoic Acid (Di-C8) Polymyxin] (Octanoyl-[Dab](Octanoyl)T[Dab][Dab][Dab][dF]L[Dab][Dab]T; lactam 4-C)
- MIC (MSSE CANWARD-2008 81388): 8 µg/mL (≈ 6.08 µM)
- fold better MIC than colistin (MSSE CANWARD-2008 81388; methicillin-susceptible Staphylococcus epidermidis): 32 fold
- MIC (MRSE CAN-ICU 61589; CAN-ICU 61589): 16 µg/mL (≈ 12.2 µM)
- MIC (P. aeruginosa ATCC 27853; ATCC 27853): 8 µg/mL (≈ 6.08 µM)
- MIC ([1]; CAN-ICU 62308): 8 µg/mL (≈ 6.08 µM)
- MIC (P. aeruginosa PA095): 2 µg/mL (≈ 1.52 µM)
- MIC (P. aeruginosa PA100036; PA100036): 4 µg/mL (≈ 3.04 µM)
- MIC (P. aeruginosa PA101885): 4 µg/mL (≈ 3.04 µM)
- MIC [2]: 2 µg/mL (≈ 1.52 µM)
- MIC [3]: 2 µg/mL (≈ 1.52 µM)
- MIC ([4]; PA262-101856): 8 µg/mL (≈ 6.08 µM)
- MIC [5]: 4 µg/mL (≈ 3.04 µM)
- MIC (P. aeruginosa PAO1; PAO1): 4 µg/mL (≈ 3.04 µM)
- MIC ([6]; CAN-ICU 62584): 32 µg/mL (≈ 24.3 µM)
- MIC (A. baumannii 110193; 110193): 16 µg/mL (≈ 12.2 µM)
- MIC (A. baumannii AB027; AB027): 32 µg/mL (≈ 24.3 µM)
- MIC (A. baumannii AB031; AB031): 8 µg/mL (≈ 6.08 µM)
- MIC (A. baumannii ATCC 17978; ATCC 17978): 32 µg/mL (≈ 24.3 µM)
- MIC ([7]; CAN-ICU 63169): 64 µg/mL (≈ 48.6 µM)
- MIC (A. baumannii LAC-4; LAC-4): 16 µg/mL (≈ 12.2 µM)
- MIC (K. pneumoniae 116381; 116381): >128 µg/mL
- MIC (K. pneumoniae ATCC 13883; ATCC 13883): >128 µg/mL
- MIC (P. aeruginosa 101243): 32 µg/mL (≈ 24.3 µM)
- MIC (P. aeruginosa 114228): 4 µg/mL (≈ 3.04 µM)
- MIC (P. aeruginosa 91433): 4 µg/mL (≈ 3.04 µM)
- MIC (K. pneumoniae 113250): >64 µg/mL
- MIC (K. pneumoniae 113254): >64 µg/mL

Structure (SMILES): CCCCCCCCCCCC(=O)NCC[C@H](NC(=O)CCCCCCCCCCC)C(=O)N[C@H](C(=O)N[C@@H](CCN)C(=O)N[C@H]1CCNC(=O)[C@H]([C@@H](C)O)NC(=O)[C@H](CCN)NC(=O)[C@H](CCN)NC(=O)[C@H](CC(C)C)NC(=O)[C@@H](Cc2ccccc2)NC(=O)[C@H](CCN)NC1=O)[C@@H](C)O [Compound 3, Didodecanoic Acid (Di-C12) Polymyxin] (Lauroyl-[Dab](Lauroyl)T[Dab][Dab][Dab][dF]L[Dab][Dab]T; lactam 4-C)
- MIC (MSSE CANWARD-2008 81388): 64 µg/mL (≈ 44.8 µM)
- MIC (MRSE CAN-ICU 61589; CAN-ICU 61589): 64 µg/mL (≈ 44.8 µM)
- MIC (P. aeruginosa ATCC 27853; P. aeruginosa ATCC 27853): >128 µg/mL
- MIC ([1]; CAN-ICU 62308): 64 µg/mL (≈ 44.8 µM)
- MIC (P. aeruginosa PA095): 8 µg/mL (≈ 5.6 µM)
- MIC (P. aeruginosa PA100036; PA100036): 32 µg/mL (≈ 22.4 µM)
- MIC (P. aeruginosa PA101885): 32 µg/mL (≈ 22.4 µM)
- MIC [2]: 16 µg/mL (≈ 11.2 µM)
- MIC [3]: 32 µg/mL (≈ 22.4 µM)
- MIC ([4]; PA262-101856): 32 µg/mL (≈ 22.4 µM)
- MIC [5]: 64 µg/mL (≈ 44.8 µM)
- MIC (P. aeruginosa PAO1; PAO1): 32 µg/mL (≈ 22.4 µM)
- MIC ([6]; CAN-ICU 62584): 128 µg/mL (≈ 89.6 µM)
- MIC (A. baumannii 110193; A. baumannii 110193): >128 µg/mL
- MIC (A. baumannii AB027; AB027): 128 µg/mL (≈ 89.6 µM)
- MIC (A. baumannii AB031; AB031): 64 µg/mL (≈ 44.8 µM)
- MIC (A. baumannii ATCC 17978; A. baumannii ATCC 17978): >128 µg/mL
- MIC ([7]; CAN-ICU 63169): 128 µg/mL (≈ 89.6 µM)
- MIC (A. baumannii LAC-4; A. baumannii LAC-4): >128 µg/mL
- MIC (K. pneumoniae 116381; K. pneumoniae 116381): >128 µg/mL
- MIC (K. pneumoniae ATCC 13883; K. pneumoniae ATCC 13883): >128 µg/mL
- MIC (P. aeruginosa 101243): 16 µg/mL (≈ 11.2 µM)
- MIC (P. aeruginosa 114228): >128 µg/mL
- MIC (P. aeruginosa 91433): 8 µg/mL (≈ 5.6 µM)
- MIC (K. pneumoniae 113250): >64 µg/mL
- MIC (K. pneumoniae 113254): >64 µg/mL
